Data on 11 compounds can be found in ChEMBL document CHEMBL1201862, “PubChem BioAssay data set” (2004).

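All cell lines were grown in 96-well plates and treated with compound for 48 hours. At the GI50, growth is halved.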 Active and inactive are the calls of the source. No stated cut-off is given here; in the data, active = GI50 up to about 1.1 µM and inactive = higher. Some results are limits rather than exact numbers.

What all share (test): NCI tumour cell line growth inhibition, 48 h
Assay [1] relates to UACC-257.
Assay [2] concerns SK-MEL-2.
In assay [3] the test system is TK-10.
Assay [4] deals with SF-268.
The test system of assay [5] is RXF 393.
Assay [6] concerns HL-60.
In assay [7] the test system is EKVX.
In assay [8] the test system is IGROV-1.
The subject of assay [9] is BT-549.
The test system of assay [10] is U-251.
The subject of assay [11] is NCI-H460.
The test system of assay [12] is MDA-N.
In assay [13] the test system is 786-0.
Assay [14] has as its system UACC-62.
Assay [15] has as its system A498.
Assay [16] relates to OVCAR-4.
Assay [17] has as its system OVCAR-3.
The test system of assay [18] is KM12.
The test system of assay [19] is OVCAR-8.
The subject of assay [20] is DMS-114.

As to `C(=N\c1cnc2ccccc2c1)/c1ccc2ccccc2n1`, the GI50 was > 100 µM (inactive) in assay [1]; > 100 µM (inactive) in assay [2]; > 100 µM (inactive) in assay [3]; > 100 µM (inactive) in assay [4]; > 100 µM (inactive) in assay [5]; 53.3 µM (inactive) in assay [6]. For the same compound, the GI50 is > 100 µM (inactive) in [7]; > 100 µM (inactive) in assay [8]; > 100 µM (inactive) in assay [9]; 67.5 µM (inactive) in assay [10]; > 100 µM (inactive) in assay [11]; > 100 µM (inactive) in [12]. Besides, the GI50 in assay [13] was > 100 µM (inactive); in assay [14] it was > 100 µM (inactive); in [15], > 100 µM (inactive); in assay [16] it was > 100 µM (inactive); in [17], 27.7 µM (inactive); in assay [18], > 100 µM (inactive). In [19], the GI50 was > 100 µM (inactive).
Regarding `O=C(CC1(O)C(=O)Nc2c(Cl)cccc21)c1ccccc1` (stereo not given), the GI50 in [1], in [20], in [2], in [3], in assay [4] and in [5] was > 100 µM (inactive) each time. Moreover, the GI50 was > 100 µM (inactive) in [6]; > 100 µM (inactive) in [7]; > 100 µM (inactive) in [10]; > 100 µM (inactive) in assay [11]; > 100 µM (inactive) in [13]; 60 µM (inactive) in [16]. The GI50 in [17], in assay [18] and in assay [19] was > 100 µM (inactive) in each case.
In the case of `Cc1nnc2n1N=C(c1cc(F)c(Cl)cc1Cl)/C(=C/c1ccc(Cl)cc1)S2`, the GI50 in assay [1] was 17 µM (inactive); in assay [2], 8.15 µM (inactive); in [3], 28.7 µM (inactive); in [4] it was 41.8 µM (inactive); in assay [5], 17.2 µM (inactive); in [6] it was 26.4 µM (inactive). For the same compound, the GI50 is 9.42 µM (inactive) in assay [7]; 19.6 µM (inactive) in assay [8]; 18.7 µM (inactive) in [9]; 17 µM (inactive) in assay [10]; 13.9 µM (inactive) in assay [11]; 15.8 µM (inactive) in [12]. Also, the GI50 was 16.8 µM (inactive) in [13]; 15 µM (inactive) in [14]; 19.1 µM (inactive) in [15]; 13.7 µM (inactive) in assay [16]; 12.7 µM (inactive) in assay [17]; 12.8 µM (inactive) in assay [18]. The GI50 in assay [19] is 16.1 µM (inactive).
Regarding `CC1(C)OC(C(=O)Nc2cc3c4ccccc4ccc3c3ccccc23)C(C(=O)N2CCCCC2)O1` (stereo not given), the GI50 in assay [1] was > 25.1 µM (inactive); in [2] it was 9.18 µM (inactive); in assay [3], > 22.6 µM (inactive); in [4] it was 2.43 µM (inactive); in assay [5], 1.17 µM (inactive); in assay [6], 1.41 µM (inactive). Besides, the GI50 is > 54.8 µM (inactive) in assay [7]; 1.32 µM (inactive) in assay [8]; 47 µM (inactive) in assay [9]; 1.14 µM (inactive) in assay [10]; 0.385 µM (active) in [11]; 5.94 µM (inactive) in [12]. Further, the GI50 in assay [13] is 1.77 µM (inactive); in [14], 1.17 µM (inactive); in [15] it was > 23.9 µM (inactive); in [16], 21.5 µM (inactive); in assay [17], 2.29 µM (inactive); in assay [18], 2.18 µM (inactive). For the same compound, in assay [19], the GI50 is 0.957 µM (active).
As for `CC(C)(Cl)C(Cl)CC/C(CBr)=C(\Cl)CBr` (stereo not given), the GI50 in [1] is 2.08 µM (inactive); in assay [2], 1.67 µM (inactive); in [3] it was 1.95 µM (inactive); in assay [4], 3.3 µM (inactive); in assay [5], 1.53 µM (inactive); in assay [6], 0.32 µM (active). Further, the GI50 is 16.5 µM (inactive) in assay [7]; 1.66 µM (inactive) in [8]; 1.75 µM (inactive) in assay [9]; 1.83 µM (inactive) in assay [10]; 2.71 µM (inactive) in [11]; 1.81 µM (inactive) in assay [12]. Further, the GI50 in assay [13] is 1.36 µM (inactive); in assay [14] it was 1.76 µM (inactive); in assay [15] it was 19.2 µM (inactive); in assay [16], 1.51 µM (inactive); in assay [17], 2.64 µM (inactive); in assay [18] it was 2.08 µM (inactive). In addition, the GI50 in assay [19] was 1.95 µM (inactive).
Consider `CCC/C(Cl)=N\OC(=O)Nc1ccc(OC(F)(F)F)cc1`, for which the GI50 was 19.6 µM (inactive) in assay [1]; 17.6 µM (inactive) in assay [2]; 3.3 µM (inactive) in assay [3]; 24.7 µM (inactive) in assay [4]; 16 µM (inactive) in [5]; 3.25 µM (inactive) in [6]. Besides, the GI50 in assay [7] is 10.1 µM (inactive); in assay [8] it was 6.93 µM (inactive); in assay [9] it was 20.9 µM (inactive); in assay [10] it was 27 µM (inactive); in assay [11] it was 20.5 µM (inactive); in assay [12] it was 13.5 µM (inactive). For the same compound, the GI50 in [13] is 12.3 µM (inactive); in assay [14], 18.8 µM (inactive); in [15], 23.8 µM (inactive); in [16], 18.6 µM (inactive); in assay [17], 11.3 µM (inactive); in [18] it was 9.48 µM (inactive). The GI50 in assay [19] is 16.7 µM (inactive).
As for `Cc1ccc(S(=O)(=O)N/N=C/C2(c3ccccc3)c3ccccc3-c3ccccc32)cc1`, the GI50 in assay [1] was 15.6 µM (inactive); in assay [2] it was 12.2 µM (inactive); in assay [3], 20.9 µM (inactive); in assay [4], 14 µM (inactive); in [5], 13 µM (inactive); in assay [6], > 100 µM (inactive). The GI50 in assay [7] is 8.95 µM (inactive); in [8] it was 10.5 µM (inactive); in assay [9], 14.2 µM (inactive); in assay [10] it was 11.8 µM (inactive); in assay [11] it was 5.06 µM (inactive); in [12] it was 4.28 µM (inactive). Besides, the GI50 is 12.1 µM (inactive) in assay [13]; 11.2 µM (inactive) in assay [14]; 18.6 µM (inactive) in assay [15]; 10.3 µM (inactive) in assay [16]; 7.71 µM (inactive) in [17]; 7.76 µM (inactive) in assay [18]. Also, the GI50 in [19] was 8.97 µM (inactive).
With `[N-]=[N+]=Nc1c([N+](=O)[O-])c(Cl)nc2ccccc12`, the GI50 in assay [1] was 1.69 µM (inactive); in [2], 1.4 µM (inactive); in [3], 2.25 µM (inactive); in assay [4], 3.47 µM (inactive); in [5], 1.86 µM (inactive); in assay [6], 0.119 µM (active). For the same compound, the GI50 is 3.01 µM (inactive) in assay [7]; 2.09 µM (inactive) in assay [8]; 1.74 µM (inactive) in [9]; 5.96 µM (inactive) in assay [10]; 10.8 µM (inactive) in [11]; 2.38 µM (inactive) in assay [12]. Further, the GI50 in assay [13] was 0.541 µM (active); in assay [14], 4.37 µM (inactive); in [15], 13.7 µM (inactive); in assay [16] it was 1.9 µM (inactive); in assay [17] it was 1.41 µM (inactive); in assay [18] it was 7.16 µM (inactive). Moreover, the GI50 in [19] was 1.87 µM (inactive).
On to `Nc1c(C(=O)c2ccccc2)[nH]c(NCc2ccccc2)c1C(=S)Nc1ccccc1`, for which the GI50 in [1], in assay [2], in [3], in assay [4], in [5] and in assay [6] was > 100 µM (inactive) each time. Also, the GI50 in assay [7], in assay [8], in assay [9], in assay [10], in assay [11] and in [12] was > 100 µM (inactive) in each case. In addition, the GI50 in assay [13], in [14], in assay [15], in assay [16], in assay [17] and in [18] was > 100 µM (inactive) throughout. For the same compound, in [19], the GI50 is > 100 µM (inactive).
Regarding `CC(C)(C)c1ccc(S(=O)(=O)N2C(c3cccc(C4CC[C@@H](C(=O)O)N4S(=O)(=O)c4ccc(C(C)(C)C)cc4)c3)CC[C@H]2C(=O)O)cc1` (stereo not given in full), the GI50 is 53 µM (inactive) in [1]; 30.1 µM (inactive) in assay [2]; 65.5 µM (inactive) in [3]; 77.8 µM (inactive) in assay [4]; 30.1 µM (inactive) in assay [5]; 43.5 µM (inactive) in assay [6]. Besides, the GI50 in [7] was 30.1 µM (inactive); in assay [8], 33.5 µM (inactive); in [9], 50 µM (inactive); in assay [10], 38.9 µM (inactive); in assay [11], 47.9 µM (inactive); in assay [12] it was 55.2 µM (inactive). Further, the GI50 was 49.4 µM (inactive) in [13]; 44.9 µM (inactive) in assay [14]; > 100 µM (inactive) in [15]; 54.8 µM (inactive) in [16]; 28 µM (inactive) in assay [17]; 53.8 µM (inactive) in assay [18]. Moreover, the GI50 in assay [19] was 67.5 µM (inactive).
On to `O=C(O)c1cc2c(ncc3c(=O)n(-c4ccccc4)[nH]c32)s1`, for which the GI50 in [20], in assay [2], in assay [3], in assay [4], in assay [5] and in assay [7] was > 100 µM (inactive) in each case. The GI50 in [8], in assay [10], in assay [11], in [14], in assay [16] and in assay [17] was > 100 µM (inactive) throughout. The GI50 in assay [18] and in assay [19] was > 100 µM (inactive) throughout.
